These results are taken from patent publication US20240335555A1, “TECHNOLOGIES FOR PREVENTING OR TREATING INFECTIONS” (priority 2021, published 2024).

Experiment [1] concerns USA-WA1/2020 (SARS-CoV-2) virus. The conditions noted are these: USA-WA1/2020 virus.
For experiment [2], the target named is T1, ACE2 binding to Spike RBD (Severe acute respiratory syndrome coronavirus 2, UniProt P0DTC2).
T1 construct: Biotin-(I-24) or His-tagged RBD protein is added; purchased Acro Biosystems SPD-C52H3 (RBD); AC2-H5257 (ACE2-Fc)
The experiment in a line: biochemical. The conditions noted are these: for inhibition at 1 µM: @ 1,000 nM.

In experiment [3] the target is T2, SARS-CoV-2 (COVID-19) S Protein RBD (Severe acute respiratory syndrome coronavirus 2, UniProt P0DTC2).
T2 construct: SARS-CoV-2 (COVID-19) S Protein RBD, His Tag—Acro Biosystems SPD-C52H3; purchased Acro Biosystems SPD-C52H3
The experiment is classed as binding. The conditions noted are these: Octet.

*: point of attachment. Biotin = O=C1N[C@H]2[C@H](CS[C@H]2CCCCC(=O)*)N1; PEG4 = NCCOCCOCCOCCOCCC(=O)O

By IC50 is commonly meant the concentration needed to halve the response being measured. On to `CC[C@H](C)[C@H](NC(=O)[C@H](CC(C)C)NC(=O)[C@H](CC(=O)O)NC(=O)[C@H](CO)NC(=O)[C@@H](NC(=O)[C@H](CCCNC(=N)N)NC(=O)[C@H](CCSC)NC(=O)[C@H](CO)NC(=O)[C@H](C)NC(=O)[C@H](CCC(=O)O)NC(=O)[C@H](C)NC(=O)[C@H](Cc1c[nH]cn1)NC(=O)CNC(=O)[C@H](CC(C)C)NC(=O)[C@H](CCC(=O)O)NC(=O)[C@H](CC(=O)O)NC(=O)[C@H](CC(C)C)NC(=O)[C@H](CC(C)C)NC(=O)[C@H](CCCNC(=N)N)NC(=O)[C@H](CCSC)NC(=O)[C@@H](NC(=O)[C@H](CCC(=O)O)NC(=O)[C@H](Cc1ccc(O)cc1)NC(=O)[C@@H](NC(=O)[C@H](CCCCN)NC(=O)[C@H](CCC(N)=O)NC(=O)[C@H](CC(C)C)NC(=O)[C@@H](NC(=O)[C@H](Cc1c[nH]c2ccccc12)NC(=O)[C@H](CCC(=O)O)NC(=O)[C@H](CCCCN)NC(=O)[C@H](CC(=O)O)NC(=O)CCOCCOCCOCCOCCNC(=O)CCCC[C@@H]1SC[C@@H]2NC(=O)N[C@@H]21)[C@@H](C)CC)[C@@H](C)CC)[C@@H](C)CC)C(C)C)C(=O)N[C@@H](Cc1ccc(O)cc1)C(=O)N[C@@H](CCC(=O)O)C(=O)N[C@@H](Cc1ccccc1)C(=O)N[C@@H](CCSC)C(=O)N[C@@H](CCCCN)C(=O)N[C@@H](CCCCN)C(=O)NCC(=O)N[C@@H](CC(=O)O)C(=O)N[C@@H](CCC(=O)O)C(=O)N[C@@H](CCCNC(=N)N)C(=O)N[C@@H](CC(C)C)C(=O)N[C@@H](CC(C)C)C(=O)N[C@@H](CCC(=O)O)C(=O)N[C@@H](CCC(=O)O)C(=O)N[C@@H](C)C(=O)N[C@@H](CCC(=O)O)C(=O)N[C@@H](CCCNC(=N)N)C(=O)N[C@@H](CC(C)C)C(=O)N[C@@H](CC(C)C)C(=O)N[C@@H](CCC(=O)O)C(=O)N[C@@H](CCC(=O)O)C(=O)N[C@H](C(=O)N[C@@H](CCC(=O)O)C(=O)N[C@@H](CCCNC(=N)N)C(N)=O)C(C)C` [Compound I-14], for which, in experiment [1], the IC50 was less than 4.6 nM.
For orientation: inhibition means the drop in the measured response relative to a control, in per cent. Turning to “Ac-DKEEILNKIYEIMRLLDELGNAEASMRVSDLILEFMKKGDERLLEEAERLLEEVER-NH2 [Compound I-1]”, the inhibition at 1 µM in experiment [2] came to 42%. The IC50 in experiment [2] (ELISA competition, read-out: IC50, Inhibition of ACE2 Binding to Spike RBD) is greater than 1000 nM. Moreover, the “KD, Binding to Anchored Spike RBD” value in experiment [3] is given as “No Binding”.
For the compound “{Biotin-PEG4}-DKEEILNKIYEIMRLLDELGNAEASMRVSDLILEFMKKGDERLLEEAERLLEEVER-NH2 [Compound I-2]”, the inhibition at 1 µM in experiment [2] was determined as 30%.
Compound `CC[C@H](C)[C@H](NC(=O)[C@H](CC(C)C)NC(=O)[C@H](CC(=O)O)NC(=O)[C@H](CO)NC(=O)[C@@H](NC(=O)[C@H](CCCNC(=N)N)NC(=O)[C@H](CCSC)NC(=O)[C@H](CO)NC(=O)[C@H](C)NC(=O)[C@H](CCC(=O)O)NC(=O)[C@H](C)NC(=O)[C@H](Cc1c[nH]cn1)NC(=O)CNC(=O)[C@H](CC(C)C)NC(=O)[C@H](CCC(=O)O)NC(=O)[C@H](CC(=O)O)NC(=O)[C@H](CC(C)C)NC(=O)[C@H](CC(C)C)NC(=O)[C@H](CCCNC(=N)N)NC(=O)[C@H](CCSC)NC(=O)[C@@H](NC(=O)[C@H](CCC(=O)O)NC(=O)[C@H](Cc1ccc(O)cc1)NC(=O)[C@@H](NC(=O)[C@H](CCCCN)NC(=O)[C@H](CCC(N)=O)NC(=O)[C@H](CC(C)C)NC(=O)[C@@H](NC(=O)[C@H](Cc1c[nH]c2ccccc12)NC(=O)[C@H](CCC(=O)O)NC(=O)[C@H](CCCCN)NC(=O)[C@H](CC(=O)O)NC(=O)CCOCCOCCOCCOCCNC(=O)CCCC[C@@H]1SC[C@@H]2NC(=O)N[C@@H]21)[C@@H](C)CC)[C@@H](C)CC)[C@@H](C)CC)C(C)C)C(=O)N[C@@H](Cc1ccc(O)cc1)C(=O)N[C@@H](CCC(=O)O)C(=O)N[C@@H](Cc1ccccc1)C(=O)N[C@@H](CCSC)C(=O)N[C@@H](CCCCN)C(=O)N[C@@H](CCCCN)C(=O)NCC(=O)N[C@@H](CC(=O)O)C(=O)N[C@@H](CCC(=O)O)C(=O)N[C@@H](CCCNC(=N)N)C(=O)N[C@@H](CC(C)C)C(=O)N[C@@H](CC(C)C)C(=O)N[C@@H](CCC(=O)O)C(=O)N[C@@H](CCC(=O)O)C(=O)N[C@@H](C)C(=O)N[C@@H](CCC(=O)O)C(=O)N[C@@H](CCCNC(=N)N)C(=O)N[C@@H](CC(C)C)C(=O)N[C@@H](CC(C)C)C(=O)N[C@@H](CCC(=O)O)C(=O)N[C@@H](CCC(=O)O)C(=O)N[C@H](C(=O)N[C@@H](CCC(=O)O)C(=O)N[C@@H](CCCNC(=N)N)C(=O)O)C(C)C` [Compound I-6] gave an IC50 in experiment [1] of less than 4.6 nM.
